{"source": "patent US20140243243A1", "about": "“DEVICE AND METHOD FOR CELL-EXCLUSION PATTERNING” (Corning Incorporated, priority 2012, published 2014)", "test_system": "cells growing in a cell-exclusion patterned cell culture", "assay": "Cell-exclusion patterned cell culture in the presence and absence of a drug (cell proliferation and migration)", "type": "cell-based", "details": "uncoated well bottoms; micrographs pretreatment (t=0 h), after 14 h and 40 h of treatment; FIG. 11", "experimental": "Cell-exclusion patterning was carried out by a sequence of steps, as illustrated in FIG. 3. In Step A, complete medium was added to wells of a microtiter plate. The volume added was approximately 30 ul for 384-well plates or 75 ul for 96-well plates. In step B, a comb having guide pins and blocking pins was lowered into the microtiter plate and the blocking pins were locked into the desired wells and the guide pins into the corresponding guide holes. In step C, cells were introduced into the wells of the microtiter plate by adding a solution containing cells to the walls of the wells. The volume of the cell solution was approximately 20 ul for 384-well plates or 25-50 ul for 96-well plates. The cell density was 8000 cells per well and 30,000 cells per well for 384- and 96-well plates, respectively. In step D, the cells were allowed to settle and adhere to the well bottom inside a cell culture hood for about 45 min. The microplates were then placed inside a humidified incubator at 37° C. and 5% CO2 for 3-4 h to allow the cells to attach to the well bottom. In step E, the comb and the pins were removed from the wells. Drugs were then added, if necessary to carry out an assay.\nCell patterns were imaged by bright-field or fluorescent microscopy or by using Corning Epic® label-free high-resolution optical resonance detection system (available from Corning Incorporated, Corning, N.Y.). […]", "data": [{"smiles": "C=C1[C@@H](C)[C@H]2[C@H](Cc3ccccc3)NC(=O)[C@]23[C@H](OC(C)=O)/C=C/[C@@](C)(O)C(=O)[C@@H](C)C/C=C/[C@H]3[C@@H]1O", "note": "[CytoD, Cytochalasin D]", "values": [{"measurement": "growth of cells into the cell exclusion area over time", "value": "cells do not grow into the cell exclusion area over time"}]}]}
